Experiments:
[1] = Liquid; for viscosity: Falling or rolling sphere viscometry; for mass density: Vibrating tube method
[2] = cn = amount concentration of the nth substance listed, in mol/dm3; conditions: 101.3 kPa, Liquid, Falling or rolling sphere viscometry, c2 = 0

NCCO [2-aminoethan-1-ol]
[1], 101.33 kPa
Conditions | mass density [kg/m3] | viscosity [mPa·s]
303.15 K | 1007.7 | 14.61
313.15 K | 999.8 | 9.724
323.15 K | 991.7 | 6.807
333.15 K | 983.7 | 4.97
343.15 K | 975.5 | 3.784

O [water]
[1], 101.3 kPa
Conditions | viscosity [mPa·s]
293.15 K | 1.002
298.15 K | 0.8908
303.15 K | 0.799
308.15 K | 0.722
313.15 K | 0.6564
318.15 K | 0.6009

O [water] + NCCCC[C@H](N)C(=O)[O-].[K+]
[2]
Conditions | viscosity [mPa·s]
298.15 K | 0.8908
303.15 K | 0.799
308.15 K | 0.722
313.15 K | 0.6564
318.15 K | 0.6009

O [water] + O=C([O-])[C@@H]1CCCN1.[K+]
[2]
Conditions | viscosity [mPa·s]
298.15 K | 0.8908
303.15 K | 0.799
308.15 K | 0.722
313.15 K | 0.6564
318.15 K | 0.6009

Reference: the NIST ThermoML archive (doi:10.1016/j.fluid.2015.04.021)
